Experimental data published in EP0059817A1, “Serpentine, alstonine and sempervirine drugs for the specific inhibition of tumurous and cancerous cells” (priority 1981, dated 1982).

Key:
[1] = tested on: Cellules "Vero" (cellules de lignée); assay: cell culture cytotoxicity, normal cells; assay type: cell-based; conditions: 150 µg dès l'ensemencement (per ml of culture)
Experimental: (§1) L'effet cytotoxique spécifique, vis-à-vis des cellules tumorales utilisées, ne s'est jamais démenti au cours des très nombreuses expériences effectuées. Par contre, pour effectuer les cellules saines il a fallu des quantités d'alcaloides au moins dix fois plus grandes (plus de 2 mg/ml). (Les cultures de cellules in-vitro sans mycoplàsmes ont été effectuées dans les conditions classiques et en l'absence d'antibiotique qui pourraient fausser les résultats).
(§2) Les cellules cancéreuses et saines utilisées ne contenaient pas de mycoplasmes et le milieu de culture ne contenait pas d'antibiotique, ces derniers pouvant sensibiliser les cellules et par conséquent fausser les résultats.

cellules cancéreuses = assay: cell culture cytotoxicity, cancer cells as a group; assay type: cell-based; conditions: 150 µg par ml de culture
Experimental: as §1, §2

virus de la grippe = assay type: in vivo, souris SWISS; conditions: doses comparables
cellules saines = assay: cell culture cytotoxicity, healthy cells as a group; assay type: cell-based; conditions: 150 µg par ml de culture
Experimental: as §1, §2

lymphome YC 8 = assay: lymphoma YC 8 of the mouse, flavopéreirine; assay type: in vivo, souris BALB c; conditions: for survie (surviving mice/total): i.p. 2 x 150 µg per day, 10 days from 24 h after inoculation
Text: En ce qui concerne l'activité de la flavopéreirine vis-à-vis du lumphome YC 8 de la souris, 30 souris BALB c de 19-20 g ont été inoculées par voie intrapéritonéale par 10^4 cellules ascitiques du lymphome YC 8 fraîchement prélevées et en pleine division chez la souris.
Dix souris ont été gardées comme témoins et 20 souris ont été traitées 24 heures après inoculation.
La flavopéreirine est dissoute en milieu physiologique tamponné (pH 7,65) et deux injections par voie intrapéritonéale et par jour sont administrées, (2 x 150 µg de flavopéreirine) et ceci pendant 10 jours consécutifs.

[2] = tested on: Cellules primaires de reins de singe; assay: cell culture cytotoxicity, normal cells; assay type: cell-based
Experimental: Des cultures de cellules saines (cellules primaires de reins de singe, cellules de lignée "Vero" et "SIRC") et des cultures de cellules cancéreuses (cellules K.B., cellules Hela, cellules Hep II et cellules L)ont reçu une dose de 200 Mg, soit de serpentine, soit d'alstonine, soit de sempervirine, par ml de culture.
as §1, §2

virus de la vaccine = tested on: virus de la vaccine; set-up: species or system lapin; conditions: in vivo
ascite d'Ehrlich = assay: Ehrlich ascites tumour in the mouse, flavopéreirine; assay type: in vivo, souris SWISS; conditions: for survie (surviving mice/total): i.p. 2 x 150 µg per day, 10 days from 24 h after inoculation
Experimental: En ce qui concerne l'activité de la flavopéreirine, vis-à-vis des tumeurs ascites d'Ehrlich de la souris, 30 souris SWISS de 20- 22 g ont été inoculées par voie intrapérito néale par 5 x 10^3 cellules ascite d'Ehrlich fraîchement prélevées.
Dix souris ont été gardées témoins et 20 souris ont été traitées 24 heures après l'inoculation par la flavopéreirine à raison de deux fois par jours (2 x 150 µg) par voie intrapéritonéale et pendant 10 jours consécutifs.
Les résultats du tableau VIII ci-après illustrent la survie des animaux pendant trois mois (une survie de plusieurs jours n'est pas prise en considération).

Cellules L = assay: cell culture cytotoxicity, cancer cells; assay type: cell-based; conditions: 150 µg dès l'ensemencement (per ml of culture)
Experimental: as §1, §2

Cellules Hela = assay: cell culture cytotoxicity, cancer cells; assay type: cell-based; conditions: 150 µg dès l'ensemencement (per ml of culture); culture de 3 jours
Experimental: as §1, §2

Cellules K.B. = assay: cell culture cytotoxicity, cancer cells; assay type: cell-based
Experimental: as §1, §2

[3] = 150 µg dès l'ensemencement (per ml of culture)

In the case of `CCc1ccc2c3[nH]c4ccccc4c3cc[n+]2c1` [flavopéreirine], the destruction des cellules [1] is reported as “- Pas de destruc-tion pendant 7 jours”, the “destruction des cellules cancéreuses” value (cellules cancéreuses) is reported as “détruites en 24-48 heures” and the “activity against influenza compared with sempervirine” value (virus de la grippe) is reported as “résultats tout à fait comparables”. The “destruction des cellules saines” value (cellules saines) was “ne sont pas détruites pendant les 7 jours d'observation”, the “survie (surviving mice/total)” value (lymphome YC 8; day 0) was 20/20 and the “survie (surviving mice/total)” value (lymphome YC 8; day 21) was 20/20. The “survie (surviving mice/total)” value (lymphome YC 8; day 60) was 17/20, the “survie (surviving mice/total)” value (lymphome YC 8; day 90) was 17/20 and the “state of the surviving mice” value (lymphome YC 8; voie I.P., more than three months of observation) was “développement étant tout à fait normal”. The “survie de trois mois, share of treated mice” value (lymphome YC 8; voie sous-cutanée, 2 x 150 µg per day, 10 days) was 70-80%, the destruction des cellules [2, 3] was “- Pas de destruc-tion pendant 7 jours” and the destruction des cellules ([2]; 200 µg/ml, en culture de 7 jours dès l'ensemencement) was “Pas de destruction pendant 8 jours”. For the same molecule, the appearance of papules (virus de la vaccine) was “empêche l'apparition et le développement des papules virales”, the “survie (surviving mice/total)” value (ascite d'Ehrlich; day 0) was 20/20 and the “survie (surviving mice/total)” value (ascite d'Ehrlich; day 24) was 17/20. The “survie (surviving mice/total)” value (ascite d'Ehrlich; day 60) was 11/20, the “survie (surviving mice/total)” value (ascite d'Ehrlich; day 90) was 11/20 and the “guérison (in words)” value (ascite d'Ehrlich; flavopéreirine alone, three months of observation, same results in souris BALB c) was “permet la guérison d'un important pourcentage de souris”. The destruction des cellules (Cellules L) was “- Destruction to-tale en 24-48 heures”, the destruction des cellules (Cellules Hela) was “- Destruction to-tale en 24-48 heures” and the destruction des cellules (Cellules K.B.; [3]) was “- Destruction to-tale en 24-48 heures”. The destruction des cellules (Cellules K.B.; 200 µg/ml, en culture de 3 jours dès l'ensemencement) was “Destruction totale en 24-48 heures”.
